Test results as given in patent publication US10828331B2, “Cellular compositions used to restore stem cell or progenitor cell function and methods related thereto” (Emory University, priority 2012, dated 2020).

Columns and labels:
diabetic MSCs = assay: real-time RT-PCR of angiogenic genes in compound-treated diabetic MSCs; format: cell-based, rat; settings: D-MSCs treated with epigenetic compounds for 7 days, FIG. 1
Method: To reprogram diabetic MSCs with epigenetic compounds, cultured D-MSCs were treated with HDAC inhibitor: Vorinostat or suberoylanilide hydroxamic acid (SAHA); DNA methyltransferase inhibitor: Decitabine (trade name Dacogen), or 5-aza-2′-deoxycytidine (5-aza); multiple histone 3 lysine 9 (H3K9) methyltransferases G9a and GLP inhibitor: BIX-01294; and GSK3β inhibitor: CHIR99021 for 7 more days. N-MSCs and D-MSCs were cultured by a standard MSC culture method. The cultured MSCs are typically reseeded at day 4 and cultured for another 4 days. To examine the expression levels of angiogenic genes, we isolated RNAs from N-, D-, or epigenetic compound treated reprogrammed D-MSCs (RD-MSCs), and performed real-time RT-PCR with specific primers of angiogenic genes.
Diabetes was induced in 8 week-old male Fischer 344 rats by intravenous injection of streptozotocin ([…]). Blood glucose levels were measured using an Accu-Check glucometer (Roche, Indianapolis, Ind.) after one week and two months. […]
Gene expression was determined by TaqMan® real-time quantitative PCR on the 7300 Sequence Detection System (Applied Biosystems) using TaqMan® PCR Master Mix (Applied Biosystems). […] Relative mRNA expression of target gene normalized to GAPDH was calculated by using the formula Relative Expression Level=2−ΔCt, where ΔCt=Ct gene of interest−Ct GAPDH. […]

[1] = tested on: mouse neural progenitors and mouse embryonic fibroblasts; settings: in combination with two factors (Oct4 and Klf4); cited from earlier work

Structure (SMILES) | expression of major angiogenic genes (diabetic MSCs) | reprogramming efficiency [1]
O=C(CCCCCCC(=O)Nc1ccccc1)NO [SAHA, suberoylanilide hydroxamic acid] | significant increased pattern in most of genes | 
COc1cc2nc(N3CCCN(C)CC3)nc(NC3CCN(Cc4ccccc4)CC3)c2cc1OC [BIX01294] |  | enhanced the reprogramming efficiency
COC(=O)C1=C(C)NC(C)=C([N+](=O)[O-])C1c1ccccc1C(F)(F)F (stereo not drawn) [BayK8644, 1,4-dihydro-2,6-dimethyl-5-nitro-4-[2-(trifluoromethyl)phenyl]-3-pyridinecarboxylic acid, methyl ester] |  | enhanced the reprogramming efficiency
